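Each compound was tested at five concentrations against cells in 96-well plates for 48 hours. Definition used: TGI = concentration required for complete inhibition of growth.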
Experiments:
Assay in all cases: NCI anticancer screen, dose series, 48 h
NCI/ADR-RES ovarian = system: NCI/ADR-RES ovarian
NCI-H226 lung = system: NCI-H226 lung
SK-OV-3 ovarian = system: SK-OV-3 ovarian
UACC-257 melanoma = system: UACC-257 melanoma
U251 CNS = system: U251 CNS
CAKI-1 renal = system: CAKI-1 renal
MDA-N = system: MDA-N
IGROV1 ovarian = system: IGROV1 ovarian
PC-3 prostate = system: PC-3 prostate
TK-10 renal = system: TK-10 renal

Structure (SMILES)	TGI (NCI/ADR-RES ovarian) [µM]	TGI (NCI-H226 lung) [µM]	TGI (SK-OV-3 ovarian) [µM]	TGI (UACC-257 melanoma) [µM]	TGI (U251 CNS) [µM]	TGI (CAKI-1 renal) [µM]	TGI (MDA-N) [µM]	TGI (IGROV1 ovarian) [µM]	TGI (PC-3 prostate) [µM]	TGI (TK-10 renal) [µM]
O=C(NC(Cc1c[nH]c2ccccc12)C(=O)O)/C(=C/c1ccccc1)NC(=O)c1ccccc1 (stereo not given)	> 100	> 100	> 100	> 100	> 100	> 100	> 100	> 100	> 100	> 100
COc1ccc(/C=C(\C#N)c2nc(-c3cc4ccccc4oc3=O)cs2)cc1	> 100	> 100	36.6	> 100	27.3	> 100	> 100	62.2	> 100	65.6
Cc1cc2nnn(C3CCCO3)c2cc1C (stereo not given)	> 100	> 100	> 100	> 100	> 100	> 100	> 100	> 100	> 100	> 100
CCCNC(=O)Cn1c(-c2ccccc2)cc2ccccc21	> 100	> 100	> 100	> 100	> 100	> 100	> 100	> 100	> 100	> 100
NC(=S)NS(=O)(=O)c1ccc(Cl)cc1Cl	> 100	> 100	> 100	> 100	> 100	> 100	> 100	> 100	> 100	> 100
CC(=O)Oc1ccc(-c2c(OC(C)=O)c(OC(C)=O)c(-c3ccc(OC(C)=O)c(OC(C)=O)c3)c(OC(C)=O)c2OC(C)=O)cc1	> 100	35.5	69	29.1	36.5	51.6	31.5	28.8	31	29.6
Clc1cccc(Cl)c1C1ON=C(c2ccccc2)N1C12CC3CC(CC(C3)C1)C2 (stereo not given)	84.4	> 100	> 100	15.1	> 100	> 100	> 100	> 100	29.9	> 100
O=[N+]([O-])c1ccc(-c2nc3ccccc3o2)cc1	> 100	> 100	> 100	> 100	> 100	> 100	> 100	> 100	> 100	> 100
NC(Cc1ccccc1)C(=O)O (stereo not given)	> 100	> 100	> 100	> 100	> 100	> 100	> 100	> 100	> 100	> 100
CN(NC(=O)/C(=C/C=C/c1ccccc1)NC(=O)c1ccccc1)C1=C(Cl)C(=O)[N+](c2ccccc2)=CC1	53.8	37.7	> 100	> 100	40.2	> 100	37.5	46.8	> 100	> 100
Cn1cnc([N+](=O)[O-])c1Sc1nncc2[nH]cnc12	> 100	> 100	> 100	> 100	> 100	> 100	> 100	> 100	> 100	> 100
C1CN(C23OC4(N5CCOCC5)C5C6CC(C7C6C4C72)C53)CCO1 (stereo not given)	> 100	> 100	> 100	> 100	> 100	> 100	> 100	> 100	> 100	> 100
CCCS(=O)OC1C(C2COC(C)(C)O2)OC2OC(C)(C)OC21 (stereo not given)	46.1	46.2	> 86.8	28.2	28.4	28	> 70.6	33.2	24	31.3
COc1ccc(C2=C(N)c3ccccc3C2=O)cc1	> 100	> 100	> 100	> 100	> 100	> 100	> 100	> 100	> 100	> 100
COc1ccc(N2C(=O)CSC2c2cc(OC)c(OC)c(OC)c2)cc1 (stereo not given)	85.6	> 100	71	28.9	39	62.7	55.9	> 100	> 100	> 100
CCOC(=O)c1c(C)n(CCN2CCN(C)CC2)c2ccc(OC)cc12	> 100	72	> 100	31.1	> 100	> 100	39.4	> 100	> 100	> 100

Structure (SMILES)	TGI (NCI/ADR-RES ovarian) [µM]	TGI (NCI-H226 lung) [µM]	TGI (SK-OV-3 ovarian) [µM]	TGI (UACC-257 melanoma) [µM]	TGI (U251 CNS) [µM]	TGI (CAKI-1 renal) [µM]	TGI (MDA-N) [µM]	TGI (IGROV1 ovarian) [µM]	TGI (PC-3 prostate) [µM]	TGI (TK-10 renal) [µM]
CC(CN(C)C)C(O)(c1ccccc1)c1ccccc1 (stereo not given)	> 100	> 100	> 100	> 100	> 100	> 100	> 100	> 100	> 100	> 100
CC1=C(C(=O)OC(C)C)C(c2cccc([N+](=O)[O-])c2)C(C(=O)OC(CO[N+](=O)[O-])CO[N+](=O)[O-])=C(C)N1 (stereo not given)	> 25.2	30.6	> 100	13.3	6.97	> 100	8.71	> 87.6	> 32.6	> 100
C=C(Cl)C(=C)CCC(Cl)C(C)(C)Cl (stereo not given)	> 100	> 100	> 100	> 100	> 100	> 100	> 100	> 100	> 100	> 100
Cc1nc2ccccc2n1CCc1nc2ccccc2[nH]1	> 100	> 100	> 100	> 100	> 100	> 100	> 100	> 100	> 100	> 100
CN(CCc1ccccn1)C(=S)N/N=C/c1ccccn1	18	0.255	> 51.3	0.895	> 94.9	17.2	37.4	1.21	> 58.1	0.668
NC(=O)Nc1n[nH]c(-c2ccccc2)n1	> 100	> 100	> 100	> 100	> 100	> 100	> 100	> 100	> 100	> 100
C=C1C[C@]23CC[C@@H]4C(CO)(CO)CC(=O)C[C@]4(C)[C@@H]2C(O)C[C@H]1C3 (stereo not given in full)	> 100	> 100	> 100	> 100	> 100	> 100	> 100	> 100	> 100	> 100
Cc1cccc(/C=N/NC(=S)NC(C)(C)C)n1	> 100	> 100	> 100	> 100	> 100	> 100	> 100	> 100	> 100	> 100
C=C1C(=O)O[C@H]2[C@@H](O)[C@H](C)CCC/C(C)=C/CC[C@@]3(C)O[C@@H]3C[C@@H]12	37.9	3.34	34.2	22.4	26.9	6.9	25.6	15.6	> 57.6	3.95
CCOc1cc(C=Nc2ccc(Oc3ccc(Cl)cc3)c(Cl)c2)ccc1O	52.9	90.2	58.3	80.8	44.4	59.4	61.7	60.6	88.7	> 100
COc1cc2c(cc1OCc1ccccc1)NC(=O)[C@@H]1C[C@@H](O)CN1C2=O	> 100	> 100	> 100	> 100	> 100	> 100	> 100	> 100	> 100	> 100
CCCCCCCCCCCOCCC1C(C(C)OCCN2CCCC2)OC2OC(C)(C)OC21 (stereo not given)	19.6	24.5	8.96	3.78	5.72	6.52	3.52	6.59	6.05	6.6
Cc1nc(-c2ccc(Cl)cc2)cn2c1nc1ccccc12	> 100	> 100	> 100	> 100	> 100	> 100	> 100	> 100	> 100	> 100
O=C(O)c1cc2c(cc1CC(Cc1ccccc1)C(=O)O)CCC2 (stereo not given)	> 100	> 100	> 100	> 100	> 100	> 100	> 100	> 100	> 100	> 100
CCSc1nn(-c2c3ccccc3nc3ccccc23)c(=S)s1	> 100	> 100	> 100	> 100	> 100	> 100	> 100	> 100	> 100	> 100
